# Columns and labels:
# Csx1 = target: T1, Csx1 (Saccharolobus solfataricus, UniProt Q97YD5); test: native gel electrophoretic mobility shift, quadratic fit; format: binding
# T1 construct: recombinant from plasmid expression construct; homodimer
# T1 sequence (Q97YD5 1-377): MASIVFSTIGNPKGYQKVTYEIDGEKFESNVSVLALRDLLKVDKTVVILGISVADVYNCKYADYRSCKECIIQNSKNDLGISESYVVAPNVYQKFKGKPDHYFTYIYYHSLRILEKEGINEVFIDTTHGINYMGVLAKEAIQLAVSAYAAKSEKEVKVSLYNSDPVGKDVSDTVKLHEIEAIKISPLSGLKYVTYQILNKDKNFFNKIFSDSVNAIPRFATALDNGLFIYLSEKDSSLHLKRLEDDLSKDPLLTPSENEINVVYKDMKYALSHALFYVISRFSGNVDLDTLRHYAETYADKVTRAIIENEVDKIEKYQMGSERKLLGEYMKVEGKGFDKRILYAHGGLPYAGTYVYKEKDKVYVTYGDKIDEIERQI
# Crn1 (Sso2081) = target: T2, Crn1 (Sso2081) (Saccharolobus solfataricus, UniProt Q7LYJ6); test: native gel electrophoretic mobility shift; format: binding; details: read-out: apparent KD
# T2 construct: recombinant from plasmid expression construct; homodimer
# T2 sequence (Q7LYJ6 1-178): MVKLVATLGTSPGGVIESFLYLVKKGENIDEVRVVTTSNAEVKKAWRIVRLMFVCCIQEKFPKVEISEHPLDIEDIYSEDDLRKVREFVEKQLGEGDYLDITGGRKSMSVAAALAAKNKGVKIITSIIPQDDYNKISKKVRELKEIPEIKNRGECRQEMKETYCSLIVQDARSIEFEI
smiles,measurement,setting,value
"Nc1ncnc2c1ncn2[C@@H]1O[C@@H]2COP(=O)(O)O[C@H]3[C@@H](O)[C@H](n4cnc5c(N)ncnc54)O[C@@H]3COP(=O)(O)O[C@H]3[C@@H](O)[C@H](n4cnc5c(N)ncnc54)O[C@@H]3COP(=O)(O)O[C@H]3[C@@H](O)[C@H](n4cnc5c(N)ncnc54)O[C@@H]3COP(=O)(O)O[C@H]2[C@H]1O [cA4, cyclic tetra-adenylate]",Kd,Csx1,130 ± 20 nM
same,Kd,Crn1 (Sso2081),~50 nM

# Source: paper PMC7213978, “The dynamic interplay of host and viral enzymes in type III CRISPR-mediated cyclic nucleotide signalling” (eLife, 2020)
